Laboratory results: US20220363686A1 (AiCuris GmbH & Co. KG, priority 2018, published 2022)

Columns and labels:
HBV = test: Determination of HBV DNA from the supernatants of HepAD38 cells (anti-HBV activity); format: cell-based, hepatitis B virus; conditions: Hepatitis B virus, HePAD38, 144 h, HBV DNA in HepAD38 supernatant, day 6, qPCR; read-out: Cell Activity
Summary of the method: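 HepAD38 cells (60,000/well) seeded in tetracycline-free medium to induce HBV, treated with half-log serial compound dilutions for 6 days at 37 °C. HBV DNA purified from filtered supernatant and quantified by real-time PCR against HBV plasmid standards; EC50 from relative copy numbers by non-linear regression.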

[1] = Cell viability assay (AlamarBlue); conditions: human, HepAD38 cells
[2] = target: HBV core protein (C-terminal truncated core protein containing 149 amino acids of the N-terminal assembly domain) (UniProt P03146); test: Biochemical capsid assembly assay (fluorescence quenching); set-up: rows headed: Assembly Activity; other: BODIPY-FL labelled core protein, assembly started with NaCl, read after 6 min; conditions: read-out: Assembly Activity; BODIPY-FL labelled core protein, assembly started with NaCl, read after 6 min
Summary of the method: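 N-terminal assembly domain (residues 1–149) plus C-terminal Cys150, E. coli-expressed, BODIPY-FL-maleimide labelled, used at 1.0–2.0 μM in 50 mM HEPES pH 7.5 with 0.5% DMSO. Assembly started with NaCl ([…]); fluorescence quenching (ex 477/em 525 nm) read after 6 min. 8-point compound series; EC50 by non-linear regression.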

Chain of HBV core protein (C-terminal truncated core protein containing 149 amino acids of the N-terminal assembly domain) (P03146 whole entry, the tested form may be a part): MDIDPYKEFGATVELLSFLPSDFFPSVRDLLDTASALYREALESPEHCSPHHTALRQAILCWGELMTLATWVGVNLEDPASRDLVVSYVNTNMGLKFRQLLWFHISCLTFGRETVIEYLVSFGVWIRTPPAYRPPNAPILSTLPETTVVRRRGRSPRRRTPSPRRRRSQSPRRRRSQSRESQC

SMILES | EC50 (HBV) | CC50 at 6 days [1] | IC50 [2]
CN(C(=O)c1cnn2c1CN(C(=O)c1cc3c(F)c(F)ccc3[nH]1)CC2)C1(COC(F)F)CC1 [Example 21, 5-(4,5-difluoro-1H-indole-2-carbonyl)-N-{1-[(difluoromethoxy)methyl]cyclopropyl}-N-methyl-4H,5H,6H,7H-pyrazolo[1,5-a]pyrazine-3-carboxamide] | < 1 µM | > 10 µM | < 5 µM
CC1Cn2ncc(C(=O)NC3(COC(F)F)CC3)c2CN1C(=O)c1cc2cc(F)c(Cl)cc2[nH]1 (stereo not drawn) [Example 93, 5-(6-chloro-5-fluoro-1H-indole-2-carbonyl)-N-{1-[(difluoromethoxy)methyl]cyclopropyl}-6-methyl-4H,5H,6H,7H-pyrazolo[1,5-a]pyrazine-3-carboxamide] | < 1 µM | > 10 µM | < 5 µM
O=C(NC1(COC(F)F)CC1)c1cnn2c1CN(C(=O)c1cc3c(Cl)cccc3[nH]1)CC2 [Example 105, 5-(4-chloro-1H-indole-2-carbonyl)-N-{1-[(difluoromethoxy)methyl]cyclopropyl}-4H,5H,6H,7H-pyrazolo[1,5-a]pyrazine-3-carboxamide] | < 1 µM | > 10 µM | < 5 µM
O=C(c1cc2c(F)c(F)ccc2[nH]1)N1CCn2ncc(C(=O)N3CCC(O)CC34CC4)c2C1 (stereo not drawn) [Example 119, 4-[5-(4,5-difluoro-1H-indole-2-carbonyl)-4H,5H,6H,7H-pyrazolo[1,5-a]pyrazine-3-carbonyl]-4-azaspiro[2.5]octan-7-ol] | < 1 µM | > 10 µM | < 5 µM
C[C@@H](NC(=O)c1cnn2c1CN(C(=O)c1cc3cc(Cl)c(F)cc3[nH]1)CC2)C(F)(F)F [Example 116, 5-(5-chloro-6-fluoro-1H-indole-2-carbonyl)-N-[(2R)-1,1,1-trifluoropropan-2-yl]-4H,5H,6H,7H-pyrazolo[1,5-a]pyrazine-3-carboxamide] | < 1 µM | > 10 µM | < 5 µM
O=C(c1cc2ccccc2[nH]1)N1CCn2ncc(C(=O)N3CCCOCC34CC4)c2C1 [Example 67, 4-[5-(1H-indole-2-carbonyl)-4H,5H,6H,7H-pyrazolo[1,5-a]pyrazine-3-carbonyl]-8-oxa-4-azaspiro[2.6]nonane] | < 1 µM | > 10 µM | < 5 µM
CC1Cn2ncc(C(=O)N(C)C3(COC(F)F)CC3)c2CN1C(=O)c1cc2ccccc2[nH]1 (stereo not drawn) [Example 20, N-{1-[(difluoromethoxy)methyl]cyclopropyl}-5-(1H-indole-2-carbonyl)-N,6-dimethyl-4H,5H,6H,7H-pyrazolo[1,5-a]pyrazine-3-carboxamide] | < 1 µM | > 10 µM | < 5 µM
CN(C(=O)c1cnn2c1CN(C(=O)c1cc3cc(F)c(Cl)cc3[nH]1)CC2)C1(CO)CC1 [Example 84, 5-(6-chloro-5-fluoro-1H-indole-2-carbonyl)-N-[1-(hydroxymethyl)cyclopropyl]-N-methyl-4H,5H,6H,7H-pyrazolo[1,5-a]pyrazine-3-carboxamide] | < 1 µM | > 10 µM | < 5 µM
CC1Cn2ncc(C(=O)NC3(COC(F)F)CC3)c2CN1C(=O)c1cc2ccccc2[nH]1 (single isomer, unassigned) [Example 131, N-{1-[(difluoromethoxy)methyl]cyclopropyl}-5-(1H-indole-2-carbonyl)-6-methyl-4H,5H,6H,7H-pyrazolo[1,5-a]pyrazine-3-carboxamide] | < 1 µM | > 10 µM | < 5 µM
NS(=O)(=O)c1cnn2c1CN(C(=O)c1cc3ccccc3[nH]1)CC2 [Example 26, 5-(1H-indole-2-carbonyl)-4H,5H,6H,7H-pyrazolo[1,5-a]pyrazine-3-sulfonamide] | < 1 µM | > 10 µM | < 5 µM
CN(CCO)S(=O)(=O)c1cnn2c1CN(C(=O)c1cc3ccccc3[nH]1)CC2 [Example 31, N-(2-hydroxyethyl)-5-(1H-indole-2-carbonyl)-N-methyl-4H,5H,6H,7H-pyrazolo[1,5-a]pyrazine-3-sulfonamide] | < 1 µM | > 10 µM | < 5 µM
O=C(c1cc2ccccc2[nH]1)N1CCn2ncc(C3CCCO3)c2C1 (stereo not drawn) [Example 73, 2-[3-(oxolan-2-yl)-4H,5H,6H,7H-pyrazolo[1,5-a]pyrazine-5-carbonyl]-1H-indole] | < 1 µM | > 10 µM | < 5 µM
CN(C(=O)c1cnn2c1CN(C(=O)c1cc3c(F)ccc(F)c3[nH]1)CC2)C1(CO)CC1 [Example 82, 5-(4,7-difluoro-1H-indole-2-carbonyl)-N-[1-(hydroxymethyl)cyclopropyl]-N-methyl-4H,5H,6H,7H-pyrazolo[1,5-a]pyrazine-3-carboxamide] | < 1 µM | > 10 µM | < 5 µM
O=C(c1cc2ccccc2[nH]1)N1CCn2ncc(C(=O)N3CC4CC4C3)c2C1 (stereo not drawn) [Example 43, 2-(3-{3-azabicyclo[3.1.0]hexane-3-carbonyl}-4H,5H,6H,7H-pyrazolo[1,5-a]pyrazine-5-carbonyl)-1H-indole] | < 100 µM | > 10 µM | < 5 µM
O=C(c1cc2ccccc2[nH]1)N1CCn2ncc(C(=O)N3CCC(F)(F)C3)c2C1 [Example 122, 2-[3-(3,3-difluoropyrrolidine-1-carbonyl)-4H,5H,6H,7H-pyrazolo[1,5-a]pyrazine-5-carbonyl]-1H-indole] | < 1 µM | > 10 µM | < 5 µM
O=C(c1cc2cc(F)c(Cl)cc2[nH]1)N1CCn2ncc(C(=O)N3CCC(O)CC34CC4)c2C1 (stereo not drawn) [Example 117, 4-[5-(6-chloro-5-fluoro-1H-indole-2-carbonyl)-4H,5H,6H,7H-pyrazolo[1,5-a]pyrazine-3-carbonyl]-4-azaspiro[2.5]octan-7-ol] | < 1 µM | > 10 µM | < 5 µM
O=C(c1cc2ccccc2[nH]1)N1CCn2ncc(C(=O)N3CCC(O)CC34CC4)c2C1 (stereo not drawn) [Example 58, 4-[5-(1H-indole-2-carbonyl)-4H,5H,6H,7H-pyrazolo[1,5-a]pyrazine-3-carbonyl]-4-azaspiro[2.5]octan-7-ol] | < 1 µM | > 10 µM | < 5 µM
CN(C(=O)c1cnn2c1CN(C(=O)c1cc3ccccc3[nH]1)CC2)C1(CCOC(F)F)CCC1 [Example 126, N-{1-[2-(difluoromethoxy)ethyl]cyclobutyl}-5-(1H-indole-2-carbonyl)-N-methyl-4H,5H,6H,7H-pyrazolo[1,5-a]pyrazine-3-carboxamide] | 1 to 10 µM | > 10 µM | < 5 µM
CCc1cc(F)cc2[nH]c(C(=O)N3CCn4ncc(C(=O)N(C)C5(CO)CC5)c4C3)cc12 [Example 14, 5-(4-ethyl-6-fluoro-1H-indole-2-carbonyl)-N-[1-(hydroxymethyl)cyclopropyl]-N-methyl-4H,5H,6H,7H-pyrazolo[1,5-a]pyrazine-3-carboxamide] | < 1 µM | > 10 µM | < 5 µM
O=C(NC1(CCOC(F)F)CCCC1)c1cnn2c1CN(C(=O)c1cc3ccccc3[nH]1)CC2 [Example 124, N-{1-[2-(difluoromethoxy)ethyl]cyclopentyl}-5-(1H-indole-2-carbonyl)-4H,5H,6H,7H-pyrazolo[1,5-a]pyrazine-3-carboxamide] | < 1 µM | > 10 µM | < 5 µM
Cc1c(F)ccc2[nH]c(C(=O)N3CCn4ncc(C(=O)N[C@H](C)C(F)(F)F)c4C3)cc12 [Example 113, 5-(5-fluoro-4-methyl-1H-indole-2-carbonyl)-N-[(2R)-1,1,1-trifluoropropan-2-yl]-4H,5H,6H,7H-pyrazolol[1,5-a]pyrazine-3-carboxamide] | < 1 µM | > 10 µM | < 5 µM
O=C(c1cc2ccccc2[nH]1)N1CCn2ncc(N3CC4(CC4)CC3=O)c2C1 [Example 49, 5-[5-(1H-indole-2-carbonyl)-4H,5H,6H,7H-pyrazolo[1,5-a]pyrazin-3-yl]-5-azaspiro[2.4]heptan-6-one] | < 1 µM | > 10 µM | < 5 µM
COCC1(N(C)C(=O)c2cnn3c2CN(C(=O)c2cc4ccccc4[nH]2)C(C)C3)CC1 (single isomer, unassigned) [Example 17, 5-(1H-indole-2-carbonyl)-N-[1-(methoxymethyl)cyclopropyl]-N,6-dimethyl-4H,5H,6H,7H-pyrazolo[1,5-a]pyrazine-3-carboxamide] | < 1 µM | > 10 µM | 5 to 10 µM
Cc1cc(F)cc2[nH]c(C(=O)N3CCn4ncc(C(=O)N[C@H](C)C(F)(F)F)c4C3)cc12 [Example 112, 5-(6-fluoro-4-methyl-1H-indole-2-carbonyl)-N-[(2R)-1,1,1-trifluoropropan-2-yl]-4H,5H,6H,7H-pyrazolo[1,5-a]pyrazine-3-carboxamide] | < 1 µM | > 10 µM | < 5 µM
O=C(c1cc2c(F)cc(F)cc2[nH]1)N1CCn2ncc(C3CCC3)c2C1 [Example 5, 2-{3-cyclobutyl-4H,5H,6H,7H-pyrazolo[1,5-a]pyrazine-5-carbonyl}-4,6-difluoro-1H-indole] | < 1 µM | > 10 µM | < 5 µM
